Laboratory results: US12441773B2, “Peptides, hydrogel compositions and methods of use thereof” (Regents of the University of Minnesota, priority 2019, dated 2025)
Where a SMILES comes first, the peptide text is derived from it. [ ]: non-standard residue; d: D form. The star is where a group is joined. MeOCH2CH2OCH2CO = COCCOCC(=O)*; PEG = not defined here; PEG1 = NCCOCCC(=O)O

How the values were obtained:
[1] = system: Galleria mellonella (waxmoth larvae); details: in vivo
Protocol: FIG. 6: Galleria mellonella (wax moth larvae) were injected with liquid or hydrogel forms of the listed peptide. Larval survival was monitored for 48 h.
Hydrogels are less toxic in vitro and in vivo than the unmodified peptide. To test toxicity in vivo, hydrogels of DGL13K, PEG-pro-DGL13K (PEG-DGL13K) or liquid PEG-DGL13K were injected into Galleria mellonella (waxmoth larvae) and survival monitored for 48 hrs (FIG. 6). […] Hydrogel of PEG-pro-DGL13K was less toxic than hydrogel of the unmodified DGL13K peptide.

[2] = type: physicochemical
Protocol: FIG. 1: Turbidity of peptide solutions at 630 nm. Peptides were suspended in 0.01% acetic acid (our standard peptide solvent), Phosphate-Buffered Saline (PBS), pH 7.4 or dH2O.
LGL13K and DGL13K are not soluble in physiological salt solution (PBS). […] In FIG. 1, solubility is measured as the absence of optical density (OD) due to turbidity at 630 nm.

Pseudomonas aeruginosa = type: cell-based
Protocol: (§1) Standard broth dilution assays were performed to determine the Minimal Inhibitory Concentration (MIC) of each peptide against Pseudomonas aeruginosa (P.a.) or Staphylococcus aureus (S.a.) (Table 2).

[3] = Hydrogel formation with dilute sodium hydroxide, Crystal Violet overlay; type: physicochemical; details: 8.3 mg/ml peptide, 16.7 mM NaOH, room temperature 5-10 min
Protocol: FIG. 2: Hydrogel formation of GL13 peptides. Hydrogels are overlaid with Crystal Violet solution. D=DGL13K; R=DGL13R; PEG-L=PEG-LGL13K; pro-D=PEG-pro-DGL13K; E4=PEG-E4-pro-DGL13K; L=LGL13K.
FIG. 8: Hydrogels were formed with 4.2 mg/ml peptide+sodium hydroxide at the concentrations shown. Hydrogels were overlaid with Crystal Violet. Two phases indicate the formation of a hydrogel; Phase mixing indicates the absence of hydrogel. The hydrogels formed at 6.7 mM NaOH were not stable overnight (not shown).
FIG. 9: Hydrogels were formed with 16.7 mM sodium hydroxide and peptides at the concentrations shown. D=DGL13K; L=LGL13K; R=DGL13R. Hydrogels were overlaid with Crystal Violet and imaged within 10 min. Two phases indicate the formation of a hydrogel; Phase mixing indicates the absence of hydrogel.
The antimicrobial peptide GL13K can form a hydrogel when the peptide is reacted with dilute sodium hydroxide. Hydrogels were formed by incubating 8.3 mg/ml peptide with 16.7 mM NaOH and incubating at room temperature for 5-10 min. Hydrogels were overlaid with Crystal Violet. Two phases indicate the formation of a hydrogel; Phase mixing indicates the absence of hydrogel.

Staphylococcus aureus = type: cell-based
Protocol: as §1

S. aureus = assay: Peptide hydrogels placed on S. aureus plated on agar; type: cell-based, Staphylococcus aureus; details: hydrogel on agar plate
Protocol: FIG. 3. Peptide hydrogels on S. aureus.
(§2) To test antibacterial activity, S. aureus (FIG. 3) or P. aeruginosa (FIG. 4) were plated on agar and peptide hydrogels placed on top of the bacteria. The plates were incubated to allow a bacterial lawn to grow. […] The larger inhibition zone seen for DGL13R is consistent with a lack of hydrogel formation, which allowed the peptide solution to spread on the plate.

in vitro = type: cell-based; details: human, human red blood cells
Protocol: FIG. 7: The in vitro toxicity of soluble DGL13K and PEG-pro-DGL 13K was tested against human Red Blood Cells and hemolysis recorded (% lysis compared to dH2O).
The dose causing lysis of 50% (LD50) of human red blood cells (RBC) was determined and the therapeutic index (Tx Indx) was calculated as LD50/MIC.

P. aeruginosa = assay: Peptide hydrogels placed on P. aeruginosa plated on agar; type: cell-based, Pseudomonas aeruginosa; details: hydrogel on agar plate
Protocol: FIG. 4: Peptide hydrogels on P. aeruginosa Ac.Ac.=0.01% acetic acid mixed with NaOH (buffer control).
as §2

mouse skin burn = assay: Mouse burn wound healing model; type: in vivo; details: seven days after the burn

Compound	Toxicity of hydrogel compared with hydrogel of unmodified DGL13K [1]	Solubility in physiological salt solution (PBS) [2]	Minimal Inhibitory Concentration P.a. (Pseudomonas aeruginosa) [µg/mL]	Hydrogel formation [3]	Minimal Inhibitory Concentration S.a. (Staphylococcus aureus) [µg/mL]	Growth of S. aureus lawn under peptide hydrogel (S. aureus)	HC50 (in vitro) [µg/mL]	Growth of P. aeruginosa lawn under peptide hydrogel (P. aeruginosa)	Improved healing compared to SSD-treated mice (mouse skin burn) [%]	Improved healing compared to the control mice (mouse skin burn; peptide in solution or hydrogel) [%]
CC[C@@H](C)[C@@H](NC(=O)[C@@H](CCCCN)NC(=O)CNC(=O)CCOCCN)C(=O)N[C@@H](C(=O)N[C@H](CCCCN)C(=O)N[C@H](CC(C)C)C(=O)N[C@H](CCCCN)C(=O)N[C@H](C)C(=O)N[C@H](CO)C(=O)N[C@H](CC(C)C)C(=O)N[C@H](CCCCN)C(=O)N[C@H](CC(C)C)C(=O)N[C@H](CC(C)C)C(N)=O)[C@H](C)CC [PEG-DGL13K, PEG-Gly-d-Lys-d-Ile-d-Ile-d-Lys-d-Leu-d-Lys-d-Ala-d-Ser-d-Leu-d-Lys-d-Leu-d-Leu-CONH2] (H-[PEG1]G[dK][dI][dI][dK][dL][dK][dA][dS][dL][dK][dL][dL]-NH2)	less toxic	soluble in PBS	5 to 10.4							
CC[C@H](C)[C@H](NC(=O)[C@H](CCCCN)NC(=O)CNC(=O)COCCOC)C(=O)N[C@H](C(=O)N[C@@H](CCCCN)C(=O)N[C@@H](CC(C)C)C(=O)N[C@@H](CCCCN)C(=O)N[C@@H](C)C(=O)N[C@@H](CO)C(=O)N[C@@H](CC(C)C)C(=O)N[C@@H](CCCCN)C(=O)N[C@@H](CC(C)C)C(=O)N[C@@H](CC(C)C)C(N)=O)[C@@H](C)CC [PEG-LGL13K] (MeOCH2CH2OCH2CO-GKIIKLKASLKLL-NH2; N-terminus assumed)			20.8	formed hydrogels	83					
H-GKIIKLKASLKLL-NH2 [LGL13K]		not soluble	10.4	formed hydrogels	20.8	prevented the growth	188			
PEG-d-Glu-d-Glu-d-Glu-d-Glu-d-Leu-Gly-Gly-d-Ala-Gly-d-Lys-d-Ile-d-Ile-d-Lys-d-Leu-d-Lys-d-Ala-d-Ser-d-Leu-d-Lys-d-Leu-d-Leu-CONH2 ({PEG}-[dE][dE][dE][dE][dL]GG[dA]G[dK][dI][dI][dK][dL][dK][dA][dS][dL][dK][dL][dL]-NH2; reading uncertain) [PEG-E4-pro-DGL13K]				did not form hydrogels						
CC[C@@H](C)[C@@H](NC(=O)[C@@H](CCCCN)NC(=O)CN)C(=O)N[C@@H](C(=O)N[C@H](CCCCN)C(=O)N[C@H](CC(C)C)C(=O)N[C@H](CCCCN)C(=O)N[C@H](C)C(=O)N[C@H](CO)C(=O)N[C@H](CC(C)C)C(=O)N[C@H](CCCCN)C(=O)N[C@H](CC(C)C)C(=O)N[C@H](CC(C)C)C(N)=O)[C@H](C)CC [DGL13K, NH2-Gly-d-Lys-d-Ile-d-Ile-d-Lys-d-Leu-d-Lys-d-Ala-d-Ser-d-Leu-d-Lys-d-Leu-d-Leu-CONH2] (H-G[dK][dI][dI][dK][dL][dK][dA][dS][dL][dK][dL][dL]-NH2)			5.2	formed hydrogels	1.3 to 2.6	prevented the growth	500	effectively prevented the growth	48	36
polymyxin B [reference compound]				does not form hydrogel						
CC[C@@H](C)[C@@H](NC(=O)[C@@H](CCCCN)NC(=O)CNC(=O)[C@@H](C)NC(=O)CNC(=O)CNC(=O)[C@@H](CC(C)C)NC(=O)CCOCCN)C(=O)N[C@@H](C(=O)N[C@H](CCCCN)C(=O)N[C@H](CC(C)C)C(=O)N[C@H](CCCCN)C(=O)N[C@H](C)C(=O)N[C@H](CO)C(=O)N[C@H](CC(C)C)C(=O)N[C@H](CCCCN)C(=O)N[C@H](CC(C)C)C(=O)N[C@H](CC(C)C)C(N)=O)[C@H](C)CC [PEG-pro-DGL13K, PEG-d-Leu-Gly-Gly-d-Ala-Gly-d-Lys-d-Ile-d-Ile-d-Lys-d-Leu-d-Lys-d-Ala-d-Ser-d-Leu-d-Lys-d-Leu-d-Leu-CONH2] (H-[PEG1][dL]GG[dA]G[dK][dI][dI][dK][dL][dK][dA][dS][dL][dK][dL][dL]-NH2)	less toxic		10.4		5.2		1000			
CC[C@@H](C)[C@@H](NC(=O)[C@@H](CCCNC(=N)N)NC(=O)CN)C(=O)N[C@@H](C(=O)N[C@H](CCCNC(=N)N)C(=O)N[C@H](CC(C)C)C(=O)N[C@H](CCCNC(=N)N)C(=O)N[C@H](C)C(=O)N[C@H](CO)C(=O)N[C@H](CC(C)C)C(=O)N[C@H](CCCNC(=N)N)C(=O)N[C@H](CC(C)C)C(=O)N[C@H](CC(C)C)C(N)=O)[C@H](C)CC [DGL13R, NH2-Gly-d-Arg-d-Ile-d-Ile-d-Arg-d-Leu-d-Arg-d-Ala-d-Ser-d-Leu-d-Arg-d-Leu-d-Leu-CONH2] (H-G[dR][dI][dI][dR][dL][dR][dA][dS][dL][dR][dL][dL]-NH2)		increased solubility	2.6	did not form hydrogels	1.3 to 2.6		500	effectively prevented the growth		
